Assay results taken from patent US7105527B2, “N4-acylcytosine nucleosides for treatment of viral infections” (priority 2001, dated 2006).
Read-outs that look alike come from different tables or passages of the source.

Tests used:
[1] = Cytotoxicity assay in CEM cells; assay type: cell-based, human; conditions: human, CEM lymphoblastoid cells
Outline: (§1)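 Compound toxicity measured in each cell type, with cycloheximide as positive cytotoxic control and solvent-exposed untreated cells as negative control. Cytotoxicity IC50 derived from concentration-response curves by the median effective method.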

HIV-1RF = test: Anti-HIV (in MT-2 cells) assay, viral RNA accumulation; assay type: cell-based; conditions: EC90, MT-2 cells, read-out: Anti-HIV-1 activity in different cells (EC90, μM) MT-2
Outline: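 HIV-1RF in MT-2 cells: viral RNA quantified after 3 days of infection by biotinylated capture/alkaline phosphatase reporter oligonucleotides. HIV-1NL4-3 recombinant virus in MT-4 cells: drug added 24 h post-infection, p24 measured by ELISA 3 days later.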

[2] = Cytotoxicity assay in HepG2 cells; assay type: cell-based; conditions: human
Outline: as §1

[3] = Cytotoxicity assay in PBM cells; assay type: cell-based, human; conditions: human, human PBM cells
Outline: as §1

HIV-1NL4-3 = test: Anti-HIV assay in MT-4 cells, consensus p24 assay; assay type: cell-based
Protocol: In a second antiviral testing system, the potency of the compounds was determined by measurement of viral RNA accumulation in HIV-1RF infected MT-2 cells (Bacheler L T, Paul M, Otto M J, Jadhav P K, Stone B A & Miller J A (1994) An assay for HIV RNIn infected cell lysates, and its use for rapid evaluation of antiviral efficacy. Antivir. Chem. Chemother. 5:111–121). The virus titer was established to determine the dilution producing 15 to 30 ng/RNA per well of HIV RNIn 3 days of infection. HIV-1 RNA was quantified using biotinylated capture and alkaline phosphatase-derivatized reporter oligonucleotides as described previously (Charvet A-S, Camplo M, Faury P, Graciet J C, Mourier N, Chermann J C & Kraus J L (1994) Inhibition of human immunodeficiency virus type 1 replication by phosphonoformate- and phosphonoacetate-2′,3′-dideoxy-3′-thiacytidine conjugates. J. Med. Chem. 37:2216–2223). In a third system, the effect of analogs on the replication of HIV-1NL4-3 was determined via the InterCompany Consortium consensus p24 assay as previously described (Jadhav P K & MacKay M F (1997) Cyclic urea amide: HIV-1 protease inhibitors with low nanomolar potency against both wild types and protease inhibitor resistant mutants of HIV. J. Med. Chem. 40:181–190). Recombinant viruses were recovered by transfecting the appropriate NL4-3 plasmid by lipofection. Virus stocks recovered 7 to 10 days post-transfection were titered on MT-4 cells to determine if the dilution produced 1,000 to 3,000 ng p24 in 4 days. This dilution was then used in drug susceptibility assays, where drug was added 24 h post infection of cells, and p24 quantified by ELISA 3 days later.

[4] = Cytotoxicity assay in Vero cells; assay type: cell-based; conditions: African green monkey
Outline: as §1

[5] = Cytotoxicity assay in MT-2 cells; assay type: cell-based; conditions: human
Outline: as §1

HIV-1LAl = test: Anti-HIV (in PBM cells) assay, reverse transcriptase readout; assay type: cell-based
Outline: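 Human PBM cells infected with HIV-1; compounds diluted from DMSO stocks into growth medium, AZT as positive control. Virus in supernatant quantified day 6 post-infection by reverse transcriptase assay with (rA)n.(dT)12.18 template-primer; EC50 and EC90 from concentration-response curves by median effective method.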

[6] = system: CEM (human lymphoblastoid) cells; test: Cytotoxicity assay in CEM cells; assay type: cell-based
Outline: as §1

HepG2 cells = test: Cytotoxicity assay in HepG2 cells; assay type: cell-based
Outline: as §1

human PBM cells = test: Cytotoxicity assay in PBM cells; assay type: cell-based
Outline: as §1

Vero cells = test: Cytotoxicity assay in Vero cells; assay type: cell-based
Outline: as §1

MT-2 cells = test: Cytotoxicity assay in MT-2 cells; assay type: cell-based
Outline: as §1

[7] = Table 1, read-out: Cytotoxicity in different cells (IC50, μM) CEM
[8] = Human immunodeficiency virus 1, MT2, Table 1
[9] = Table 1, read-out: Cytotoxicity in different cells (IC50, μM) HepG2
[10] = Table 1, read-out: Cytotoxicity in different cells (IC50, μM) PBM
[11] = Human immunodeficiency virus 1, MT4, Table 1, read-out: Anti-HIV-1 activity in different cells (EC90, μM) MT-4
[12] = Table 1, read-out: Cytotoxicity in different cells (IC50, μM) Vero
[13] = Table 1, read-out: Cytotoxicity in different cells (IC50, μM) MT-2
[14] = Human immunodeficiency virus 1, PBMC, Table 1, read-out: Anti-HIV-1 activity in different cells (EC90, μM) PBM
[15] = Table 2, read-out: Cytotoxicity in different cells (IC50, μM) CEM
[16] = Human immunodeficiency virus 1, MT2, Table 2
[17] = Table 2, read-out: Cytotoxicity in different cells (IC50, μM) HepG2
[18] = Table 2, read-out: Cytotoxicity in different cells (IC50, μM) PBM
[19] = Human immunodeficiency virus 1, MT4, Table 2, read-out: Anti-HIV-1 activity in different cells (EC90, μM) MT-4
[20] = Table 2, read-out: Cytotoxicity in different cells (IC50, μM) Vero
[21] = Table 2, read-out: Cytotoxicity in different cells (IC50, μM) MT-2
[22] = Human immunodeficiency virus 1, PBMC, Table 2, read-out: Anti-HIV-1 activity in different cells (EC90, μM) PBM

Row | SMILES | IC50 [1, 7] [µM] | EC90 (HIV-1RF; [8]) [µM] | IC50 [2, 9] [µM] | IC50 [3, 10] [µM] | EC90 (HIV-1NL4-3; [11]) [µM] | IC50 [4, 12] [µM] | IC50 [5, 13] [µM] | EC90 (HIV-1LAl; [14]) [µM] | IC50 [1, 15] [µM] | EC90 (HIV-1RF; [16]) [µM] | IC50 [2, 17] [µM] | IC50 [3, 18] [µM] | EC90 (HIV-1NL4-3; [19]) [µM] | IC50 [4, 20] [µM] | IC50 [5, 21] [µM] | EC90 (HIV-1LAl; [22]) [µM] | other results
1 | O=C(Nc1nc(=O)n([C@H]2CC[C@@H](CO)O2)cc1F)c1cccc(Br)c1 [Compound 16, β-D-N^4-(3-Bromobenzoyl)-2′,3′-dideoxy-5-fluorocytidine] | 40.6 | 0.51 | > 100 | > 100 | 0.42 | 80.6 | > 50 | 0.145 |  |  |  |  |  |  |  |  | 
2 | O=C(Nc1nc(=O)n([C@H]2CC[C@@H](CO)O2)cc1F)c1ccc([N+](=O)[O-])cc1 [Compound 18, β-D-2′,3′-Dideoxy-5-fluoro-N^4-(4-nitrobenzoyl)cytidine] | > 100 | 0.4 | > 100 | > 100 | 0.3 | > 100 | > 50 | 0.18 |  |  |  |  |  |  |  |  | 
3 | O=C(Nc1nc(=O)n([C@H]2CC[C@@H](CO)O2)cc1F)c1cccc([N+](=O)[O-])c1 [Compound 19, β-D-2′,3′-Dideoxy-S-fluoro-N-(3-nitrobenzoyl)cytidine] |  |  |  |  |  |  |  |  |  |  |  |  |  |  |  |  | IC50 [6, 7]: > 100 µM; EC90 (HIV-1RF; Table 1): 1.8 µM; IC50 (HepG2 cells; [9]): > 100 µM; IC50 (human PBM cells; [10]): > 100 µM; EC90 (HIV-1NL4-3; Table 1, read-out: Anti-HIV-1 activity in different cells (EC90, μM) MT-4): 1.59 µM; IC50 (Vero cells; [12]): > 100 µM; IC50 (MT-2 cells; [13]): > 50 µM; EC90 (HIV-1LAl; Table 1, read-out: Anti-HIV-1 activity in different cells (EC90, μM) PBM): 1.6 µM
4 | Cc1ccc(C(=O)Nc2nc(=O)n([C@H]3CC[C@@H](CO)O3)cc2F)cc1 [Compound 22, β-D-2′,3′-Dideoxy-5-fluoro-N^4-p-toluoylcytidine] | > 100 | 0.31 | > 100 | > 100 | 0.23 | > 100 | > 50 | 0.028 |  |  |  |  |  |  |  |  | 
5 | CCc1ccc(C(=O)Nc2nc(=O)n([C@H]3CC[C@@H](CO)O3)cc2F)cc1 [Compound 25, β-D-2′,3′-Dideoxy-N^4-(4-ethylbenzoyl)-5-fluorocytidine] | 89.8 | 0.12 | > 100 | > 100 | 0.22 | > 100 | 50 | 0.03 |  |  |  |  |  |  |  |  | 
6 | CCCc1ccc(C(=O)Nc2nc(=O)n([C@H]3CC[C@@H](CO)O3)cc2F)cc1 [Compound 26, β-D-2′,3′-Dideoxy-5-fluoro-N^4-(4-n-propylbenzoyl)cytidine] | > 100 | 0.1 | > 100 | > 100 | 0.22 | > 100 | > 50 | 0.017 |  |  |  |  |  |  |  |  | 
7 | O=C(Nc1nc(=O)n([C@H]2C=C[C@@H](CO)O2)cc1F)c1ccc(F)cc1 [Compound 35, β-D-2′,3′-Didehydro-2′,3′-dideoxy-5-fluoro-N^4-(4-fluorobenzoyl)cytidine] |  |  |  |  |  |  |  |  | 51.3 | 0.88 | 93.6 | 53.1 | 7.2 | 83.1 | > 50 | 1.08 | 
8 | O=C(Nc1nc(=O)n([C@H]2C=C[C@@H](CO)O2)cc1F)c1ccc(Cl)cc1 [Compound 36, β-D-N^4-(4-Chlorobenzoyl)-2′,3′-didehydro-2′,3′-dideoxy-5-fluorocytidine] |  |  |  |  |  |  |  |  | 16.8 | 0.23 | > 100 | 11.9 | 1.9 | 72.2 | > 50 | 0.48 | 
9 | O=C(Nc1nc(=O)n([C@H]2C=C[C@@H](CO)O2)cc1F)c1ccc(Br)cc1 [Compound 37, β-D-N^4-(4-Bromobenzoyl)-2,3′-didehydro-2′,3′-dideoxy-5-fluorocytidine] |  |  |  |  |  |  |  |  | 24 | 0.14 | > 100 | 53 | 5.2 | 40.5 | > 50 | 1.4 | 
10 | O=C(Nc1nc(=O)n([C@H]2C=C[C@@H](CO)O2)cc1F)c1ccc(I)cc1 [Compound 38, β-D-2′,3′-Didehydro-2′,3′-dideoxy-5-fluoro-N^4-(4-iodobenzoyl)cytidine] |  |  |  |  |  |  |  |  | 11.4 | 0.31 | > 100 | 57 | 0.85 | 100 | > 50 | 0.76 | 
11 | O=C(Nc1nc(=O)n([C@H]2C=C[C@@H](CO)O2)cc1F)c1cccc(F)c1 [Compound 39, β-D-2′,3′-Didehydro-2′,3′-dideoxy-5-fluoro-N^4-(3-fluorobenzoyl)cytidine] |  |  |  |  |  |  |  |  |  |  |  |  |  |  |  |  | IC50 [6, 15]: 4.2 µM; EC90 (HIV-1RF; Table 2): 1 µM; IC50 (HepG2 cells; [17]): > 100 µM; IC50 (human PBM cells; [18]): 45.3 µM; EC90 (HIV-1NL4-3; Table 2, read-out: Anti-HIV-1 activity in different cells (EC90, μM) MT-4): 3.1 µM; IC50 (Vero cells; [20]): > 100 µM; IC50 (MT-2 cells; [21]): > 50 µM; EC90 (HIV-1LAl; Table 2, read-out: Anti-HIV-1 activity in different cells (EC90, μM) PBM): 7.82 µM
